Results reported in patent publication US20110293756A1, “PREVENTIVES OR REMEDIES FOR TUMOR OR HUMAN PAPILLOMAVIRAL DISEASE” (priority 2001, published 2011).

Assays:
[1] = test system: koilocytic atypia, mild dysplasia and moderate dysplasia; conditions: 5 mg/day, 331 patients, six months; cited from earlier work
[2] = test system: CIN I or CIN II; conditions: 10 mg/day, 154 cases, 6 months; cited from earlier work
[3] = test system: cervical dysplasia (CIN1, CIN2); assay: Clinical test in cervical dysplasia CIN1 / CIN2; assay type: in vivo, human; conditions: 2 months after administration; extracts 2 g/day, folic acid 15 mg/day; Yokunin 8, hot water 3, ethanol 3, folic acid 5, enzyme/fermentation 6, with folic acid 8 cases; untreated 0 of 15
Protocol: According to the CIN classification, CIN1 and CIN2 correspond to mild dysplasia and moderate dysplasia, respectively, and CIN3 includes severe dysplasia and the above CIS. Here, the clinical effect of the pharmaceutical preparations of the present invention against the CIN1 and CIN2 is presented.
A test was conducted for cases, which had been diagnosed to be class III by cytological diagnosis and as having mild dysplasia or moderate dysplasia by histological diagnosis, and carefully followed up without conization, and for which informed consent had been obtained.
Further, the enzyme extract of Coix seeds with husks (3 cases)- or the fermentation extract (3 cases) (daily dose of 2 g of the respective extract ingredients)-administered group (6 cases), the enzyme extract of Coix seeds with husks (4 cases) or the fermentation extract (4 cases) (respective daily dose of 2 g as the extract ingredient) compounded with folic acid (15 mg/day)-administered group (8 cases) were observed. […] Test groups are as shown below. Each group was observed.
Each pharmaceutical preparation was administered over a long period (1 year), and cytological diagnosis and colposcopy were performed every 3 to 4 months.

[4] = test system: cervical carcinoma in situ (CIS); assay: Clinical test in cervical carcinoma in situ (CIS), stage 0; assay type: in vivo, human; conditions: 2 to 6 weeks of administration; extracts 2 g/day, folic acid 15 mg/day; group A 21, B 15 (8+7), C 8, D 12, E 11 cases; control 0 of 42
Protocol: A method for the clinical testing was performed in the manner described below under sufficient informed consent. Colposcopy was performed for patients who had been diagnosed to be class IV or V based on the cytobiosis of cervical cancer, portions of their lesions were subjected to biopsy, and then administration of various pharmaceutical preparations was immediately started. Test groups are as shown below. Each group was observed. […]

SMILES: Nc1nc2ncc(CNc3ccc(C(=O)N[C@@H](CCC(=O)O)C(=O)O)cc3)nc2c(=O)[nH]1 [folic acid]
- improving effect compared with the group orally administered with placebo [1]: no difference was found
- effect compared with the group orally administered with placebo [2]: no difference was also found
- cases showing improvement in both cytological diagnosis and colposcopy findings [3]: None of the cases
- cases showing disappearance of carcinoma in situ in postoperative histological tests [4]: none of the cases
